Results from patent publication US12162867B2, “Inhibitors of RNA helicase DHX9 and uses thereof” (ACCENT THERAPEUTICS, INC., priority 2022, dated 2024).
Like-named read-outs stand apart in the source and are kept apart here.

How the values were obtained:
[1] = target: T1, Human recombinant DHX9 protein (Homo sapiens, UniProt Q08211); assay: DHX9 ATPase assay (ADP-Glo); format: biochemical; settings: inflection point of dose-response curve, read-out: DHX9 Biochemical Inflection Point
T1 construct: purchased Viva

[2] = system: circBRIP1 in HCT116 cells; assay: DHX9 circBRIP1 cellular target engagement SYBR Green assay (qPCR); format: cell-based; settings: Homo sapiens, HCT-116, circBRIP1, HCT116 cells; SyBr assay (marked ^+); read-out: DHX9 Cellular Target Engagement EC50
[3] = system: LS411N cells; assay: DHX9 cellular proliferation assay (CellTiter-Glo), LS411N (CRC-MSI); format: cell-based; settings: Homo sapiens, LS-411N, read-out: LS411N (CRC-MSI-H) Antiproliferative IC50
[4] = system: circBRIP1 in HCT116 cells; assay: DHX9 circBRIP1 cellular target engagement TaqMan Multiplex assay (qPCR); format: cell-based; settings: Homo sapiens
[5] = system: NCI-H747 cells; assay: DHX9 cellular proliferation assay (CellTiter-Glo), NCI-H747 (CRC-MSS); format: cell-based; settings: Homo sapiens
[6] = HCT-116, circBRIP1, HCT116 cells, * Taqman assay was used, read-out: DHX9 Cellular Target Engagement EC50
[7] = NCI-H747, NCI-H747, performed at Pharmaron, read-out: H747 (CRC-MSS) Antiproliferative IC50
[8] = LS411N, CRC-MSI-H, performed at Pharmaron
[9] = HCT-116, 72 h, circBRIP1, HCT116 cells, 72 hours, Taqman assay (marked *), read-out: DHX9 Cellular Target Engagement EC50
[10] = NCI-H747, NCI-H747, CRC-MSS, performed at Pharmaron, read-out: H747 (CRC-MSS) Antiproliferative IC50

T1 sequence (Q08211 whole entry): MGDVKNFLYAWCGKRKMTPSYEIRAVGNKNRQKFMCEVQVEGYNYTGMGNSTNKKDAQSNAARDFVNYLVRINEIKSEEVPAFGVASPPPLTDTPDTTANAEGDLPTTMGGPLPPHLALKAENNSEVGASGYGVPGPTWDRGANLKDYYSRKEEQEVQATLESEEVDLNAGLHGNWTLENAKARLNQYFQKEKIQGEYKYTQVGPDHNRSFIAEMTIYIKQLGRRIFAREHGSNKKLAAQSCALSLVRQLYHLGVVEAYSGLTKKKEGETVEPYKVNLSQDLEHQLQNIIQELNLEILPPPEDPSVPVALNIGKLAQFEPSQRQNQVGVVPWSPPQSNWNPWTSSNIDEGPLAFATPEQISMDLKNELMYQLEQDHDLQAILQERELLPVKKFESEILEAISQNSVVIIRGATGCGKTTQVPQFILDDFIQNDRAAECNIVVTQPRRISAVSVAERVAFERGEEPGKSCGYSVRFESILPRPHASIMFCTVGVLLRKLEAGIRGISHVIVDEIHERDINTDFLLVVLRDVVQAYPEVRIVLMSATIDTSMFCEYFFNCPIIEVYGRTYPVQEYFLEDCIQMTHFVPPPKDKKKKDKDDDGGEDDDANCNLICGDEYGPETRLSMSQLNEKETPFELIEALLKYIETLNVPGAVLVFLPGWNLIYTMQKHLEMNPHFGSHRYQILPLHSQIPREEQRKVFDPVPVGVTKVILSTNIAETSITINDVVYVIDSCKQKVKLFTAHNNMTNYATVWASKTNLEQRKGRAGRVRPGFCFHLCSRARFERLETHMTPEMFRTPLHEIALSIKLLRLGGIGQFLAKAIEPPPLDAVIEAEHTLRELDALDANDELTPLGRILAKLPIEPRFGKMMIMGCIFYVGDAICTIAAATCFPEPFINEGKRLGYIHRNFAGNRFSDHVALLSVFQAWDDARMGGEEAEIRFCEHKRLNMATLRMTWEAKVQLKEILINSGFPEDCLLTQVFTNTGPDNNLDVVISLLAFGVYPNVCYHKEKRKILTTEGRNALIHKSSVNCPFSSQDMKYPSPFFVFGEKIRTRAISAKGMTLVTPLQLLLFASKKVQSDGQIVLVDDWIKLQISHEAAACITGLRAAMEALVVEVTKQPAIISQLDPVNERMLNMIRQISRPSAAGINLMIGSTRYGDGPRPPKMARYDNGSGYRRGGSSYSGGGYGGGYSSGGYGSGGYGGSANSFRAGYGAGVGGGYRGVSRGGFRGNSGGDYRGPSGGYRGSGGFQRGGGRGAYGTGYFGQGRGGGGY

| SMILES | EC50 [4, 6] | IC50 [5, 7] | IC50 ([3]; LS411N, performed at Pharmaron) | other results |
| --- | --- | --- | --- | --- |
| CS(=O)(=O)Nc1cc(Cl)cc(NC(=O)c2cnn([C@H]3CCC[C@H]3Oc3ccccc3)c2)c1 (single isomer, unassigned) [Example 259] | – | – | – | IC50 [1]: 1940 nM; EC50 [2]: > 10000 nM |
| CC(C)(C)OC(=O)NC1CC2(C1)CC(n1cc(C(=O)Nc3cc(Cl)cc(NS(C)(=O)=O)c3)cn1)C2 (centres unmarked) [Example 318] | – | – | – | IC50 [1]: 207 nM; EC50 [2]: 4900 nM |
| CS(=O)(=O)Nc1cc(Cl)cc(NC(=O)c2cnn([C@@H]3CCCC[C@H]3O)c2)c1 (single isomer, unassigned) [Example 150, N-(3-chloro-5-(methylsulfonamido)phenyl)-1-(trans-2-hydroxycyclohexyl)-1H-pyrazole-4-carboxamide] | – | – | – | IC50 [1]: 147 nM; EC50 [2]: 6560 nM |
| CNc1cnc(-c2cc(C(=O)Nc3cc(Cl)cc(NS(C)(=O)=O)c3)sc2C)nc1 [Example 616, N-(3-chloro-5-methanesulfonamidophenyl)-5-methyl-4-[5-(methylamino)pyrimidin-2-yl]thiophene-2-carboxamide] | 0.0173 µM | > 10000 nM | 348 nM | – |
| Cn1cc(C(=O)Nc2cc(Cl)cc(NS(C)(=O)=O)c2)cc1-c1ncc(N2CCC3(C2)CC3(F)F)cn1 (centres unmarked) [Example 494] | 0.0429 µM | > 10000 nM | 129 nM | – |
| COc1cnc(-c2cc(C(=O)Nc3cc(Cl)cc(NS(C)(=O)=O)c3)cn2C)nc1 [Example 549] | 0.0483 µM | > 10000 nM | 369 nM | – |
| Cn1cc(C(=O)Nc2cc(Cl)cc(NS(C)(=O)=O)c2)cc1-c1ncc(F)cc1F [Example 540, N-(3-chloro-5-methanesulfonamidophenyl)-5-(3,5-difluoropyridin-2-yl)-1-methyl-1H-pyrrole-3-carboxamide] | – | 7910 nM | 175 nM | EC50 ([4]; HCT-116, circBRIP1, HCT116 cells, cell carries no mark, SyBr or Taqman not indicated, read-out: DHX9 Cellular Target Engagement EC50): 0.0741 µM |
| Cc1cc(C(=O)Nc2cc(Cl)cc(NS(C)(=O)=O)c2)cn1-c1ncc(N2CC(C(F)(F)F)C2)cn1 [Example 694] | 0.09 µM | 7770 nM | 80.4 nM | – |
| CCS(=O)(=O)Nc1cc(Cl)cc(NC(=O)c2cc(-c3ccc(F)cn3)c(C)s2)c1 [Example 346] | – | – | – | IC50 [3, 8]: 71.6 nM; EC50 [4, 9]: 0.0438 µM; IC50 [5, 10]: 7340 nM |
| Cc1sc(C(=O)Nc2cc(Cl)cc(NS(C)(=O)=O)c2)cc1-c1ncc(OC2CNC2)cn1 [Example 636, 4-[5-(azetidin-3-yloxy)pyrimidin-2-yl]-N-(3-chloro-5-methanesulfonamidophenyl)-5-methylthiophene-2-carboxamide] | 0.3 µM | > 10000 nM | 1210 nM | – |
| CN1CC(Oc2cnc(-c3cc(C(=O)Nc4cc(Cl)cc(NS(C)(=O)=O)c4)cn3C)c(F)c2)C1 [Example 611] | 0.0205 µM | 8830 nM | 133 nM | – |
| Cn1cc(C(=O)Nc2cc(Cl)cc(NS(C)(=O)=O)c2)cc1-c1ccc(N2CCCC2)cn1 [Example 402] | 0.0686 µM | 7050 nM | 167 nM | – |
| CCS(=O)(=O)Nc1cc(Cl)cc(NC(=O)c2cc(-c3ncc(F)cc3OCc3nccs3)c(C)s2)c1 [Example 622] | 0.0559 µM | > 10000 nM | 48.9 nM | – |
| COC(=O)N1CCN(c2cnc(-c3cc(C(=O)Nc4cc(Cl)cc(NS(C)(=O)=O)c4)cn3C)c(F)c2)CC1 [Example 464] | 0.0172 µM | > 10000 nM | 247 nM | – |
| Cc1sc(C(=O)Nc2cc(Cl)cc(NS(C)(=O)=O)c2)cc1-c1ncc(C2(F)COC2)cn1 [Example 680] | 0.031 µM | 8760 nM | 208 nM | – |
| Cn1cc(C(=O)Nc2cc(Cl)cc(NS(C)(=O)=O)c2)cc1-c1ncncc1OCc1cc(F)cc(F)c1 [Example 627] | 0.0376 µM | > 10000 nM | 29.4 nM | – |
| CCS(=O)(=O)Nc1cc(Cl)cc(NC(=O)c2cc(-c3ncc(N4CC(F)(F)C4)cn3)c(C)s2)c1 [Example 463] | 0.018 µM | > 10000 nM | 59.3 nM | – |
| Cc1sc(C(=O)Nc2cc(Cl)cc(NS(C)(=O)=O)c2)cc1-c1ncc(OC(C)C)cn1 [Example 541, N-(3-chloro-5-(methylsulfonamido)phenyl)-4-(5-isopropoxypyrimidin-2-yl)-5-methylthiophene-2-carboxamide] | – | – | – | IC50 [3]: 49.8 nM; EC50 ([4]; HCT-116, read-out: DHX9 Cellular Target Engagement EC50 (μM)): 0.0377 µM; IC50 ([5]; NCI-H747, read-out: H747 (CRC-MSS) Antiproliferative IC50): 6000 nM |
| Cn1cc(C(=O)Nc2cc(Cl)cc(NS(C)(=O)=O)c2)cc1-c1ncc(N2CC(C(F)(F)F)C2)cn1 [Example 493] | 0.022 µM | > 10000 nM | 131 nM | – |
| CS(=O)(=O)Nc1cc(Cl)cc(NC(=O)c2cc(-c3ncc(C(F)(F)F)cn3)cs2)c1 [Example 369] | – | – | – | IC50 [3, 8]: 227 nM; EC50 [4, 9]: 0.0868 µM; IC50 [5, 10]: > 10000 nM |
| Cn1cc(C(=O)Nc2cc(Cl)cc(NS(C)(=O)=O)c2)cc1-c1ncc(OC2CN(CC(F)(F)F)C2)cc1F [Example 615] | 0.133 µM | 7560 nM | 71.3 nM | – |
| CS(=O)(=O)Nc1cc(Cl)cc(NC(=O)c2cnn([C@H]3CCC[C@H]3c3ccccc3)c2)c1 (single isomer, unassigned) [Example 260] | – | – | – | IC50 [1]: 715 nM; EC50 [2]: > 10000 nM |
| Cn1cc(C(=O)Nc2cc(Cl)cc(NS(C)(=O)=O)c2)cc1-c1ccc(C2CCOCC2)cn1 [Example 704] | 0.0254 µM | 7140 nM | 56.9 nM | – |
| Cn1cc(C(=O)Nc2cc(Cl)cc(NS(C)(=O)=O)c2)cc1-c1ncc(N2CC(F)C2)cn1 [Example 598] | 0.0506 µM | > 10000 nM | 174 nM | – |

The next lines start with results.

| EC50 [4, 6] | IC50 [5, 7] | SMILES | IC50 ([3]; LS411N, performed at Pharmaron) | other results |
| --- | --- | --- | --- | --- |
| 0.105 µM | 3640 nM | COc1cc(C(F)(F)F)cnc1-c1cc(C(=O)Nc2cc(Cl)cc(NS(C)(=O)=O)c2)sc1C [Example 550] | 352 nM | – |
| 0.0838 µM | 3790 nM | Cn1cc(C(=O)Nc2cc(Cl)cc(NS(C)(=O)=O)c2)cc1-c1ncc(N2CCC(F)(F)CC2)cc1F [Example 469] | 522 nM | – |
| 0.0845 µM | 3620 nM | Cn1cc(C(=O)Nc2cc(Cl)cc(NS(C)(=O)=O)c2)cc1-c1ccc(C2CCN(CC(F)(F)F)CC2)cn1 [Example 619] | 178 nM | – |
| 0.0107 µM | 5400 nM | Cc1sc(C(=O)Nc2cc(Cl)cc(NS(C)(=O)=O)c2)cc1-c1ccc(C2CN(CC(F)(F)F)C2)cn1 [Example 710] | 48.1 nM | – |
| 0.0261 µM | 4570 nM | Cc1sc(C(=O)Nc2cc(Cl)cc(NS(C)(=O)=O)c2)cc1-c1ncc(F)cc1OCc1cnco1 [Example 732] | 34.1 nM | – |
| 0.0766 µM | 6290 nM | Cn1cc(C(=O)Nc2cc(Cl)cc(NS(C)(=O)=O)c2)cc1-c1ncc(N2CC(C(F)(F)F)C2)cc1F [Example 524, N-(3-chloro-5-methanesulfonamidophenyl)-5-{3-fluoro-5-[3-(trifluoromethyl)azetidin-1-yl]pyridin-2-yl}-1-methyl-1H-pyrrole-3-carboxamide] | 138 nM | – |
| 0.0517 µM | 3880 nM | Cc1sc(C(=O)Nc2cc(Cl)cc(NS(C)(=O)=O)c2)cc1-c1ncc(OCC(F)(F)F)cn1 [Example 706] | 243 nM | – |
| 0.0176 µM | 6720 nM | Cc1sc(C(=O)Nc2cc(Cl)cc(NS(C)(=O)=O)c2)cc1-c1ncc(N2CCC3(COC3)C2)cc1F [Example 512] | 107 nM | – |
| 0.0545 µM | 4520 nM | Cn1cc(C(=O)Nc2cc(Cl)cc(NS(C)(=O)=O)c2)cc1-c1ncc(OC(C)(C)C)cn1 [Example 556] | 74.9 nM | – |
| 0.0311 µM | 1990 nM | CS(=O)(=O)Nc1cc(Cl)cc(NC(=O)c2cc(-c3ncc(N4CC(F)(F)C4)cn3)cs2)c1 [Example 486] | 112 nM | – |
| 0.0425 µM | 3370 nM | Cc1sc(C(=O)Nc2cc(Cl)cc(NS(C)(=O)=O)c2)cc1-c1ncc(OC(C)(C)C)cn1 [Example 559] | 74 nM | – |
| 0.049 µM | 6800 nM | Cc1sc(C(=O)Nc2cc(Cl)cc(NS(C)(=O)=O)c2)cc1-c1ncc(N2CC(F)(F)C2)cc1OC(F)F [Example 536] | 70.4 nM | – |
| 0.0233 µM | 2020 nM | Cc1sc(C(=O)Nc2cc(Cl)cc(NS(C)(=O)=O)c2)cc1-c1ccc(N2CC(C(F)(F)F)C2)cn1 [Example 496] | 48.2 nM | – |
| 0.102 µM | 4840 nM | Cc1sc(C(=O)Nc2cc(Cl)cc(NS(C)(=O)=O)c2)cc1-c1ncc(N2CCC3(CC2)CC3(F)F)cc1F [Example 478] | 259 nM | – |
| 0.0145 µM | 4810 nM | Cc1sc(C(=O)Nc2cc(Cl)cc(NS(C)(=O)=O)c2)cc1-c1ccc(N2CC(F)(F)C2)cn1 [Example 533] | 73.9 nM | – |
| 0.127 µM | 5430 nM | Cn1cc(C(=O)Nc2cc(Cl)cc(NS(C)(=O)=O)c2)cc1-c1c(F)cc(F)cc1F [Example 547] | 173 nM | – |
| 0.0437 µM | 2490 nM | Cn1cc(C(=O)Nc2cc(Cl)cc(NS(C)(=O)=O)c2)cc1-c1ccc(N2CC(C(F)(F)F)C2)cn1 [Example 497] | 169 nM | – |
